Earlier results in patent US6623775B2, “Treating or preventing illness growth of Clostridium difficile” (S.S. Steiner, Inc., priority 1997, dated 2003).

Settings: degree of ionization taken into account

SMILES: CC(C)=CCC(=O)[C@@]1(O)C(O)=C(C(=O)CC(C)C)C(=O)[C@H]1CC=C(C)C (relative stereo) [trans-isohumulone]
- Antibacterial activity relative to colupulone: 11 times
- Antibacterial activity relative to humulone: about 20 times
- Antibacterial activity relative to trans-humulinic acid: nine
